Experimental data: patent US7405041B2, “Methods for regulating transcription by targeting quadruplex DNA” (Arizona Board of Regents on behalf of the University of …, priority 2002, dated 2008)

How the values were obtained:
HER-2/neu quadruplex = test: DNA polymerase arrest assay, HER-2/neu promoter template; assay type: biochemical; settings: temperature gradient of 37° C. to 57° C., in the presence of potassium
Text: (§1) A polymerase arrest assay is useful for determining whether transcription is modulated by a candidate molecule and/or a nucleic acid binding protein. Such an assay includes a template nucleic acid, which often comprises a quadruplex forming sequence, and a primer nucleic acid which hybridizes to the template nucleic acid […] of the quadruplex-forming sequence. The primer is extended by a polymerase (e.g., Taq polymerase), which advances from the primer along the template nucleic acid. In this assay, a quadruplex structure can block or arrest the advance of the enzyme, leading to shorter transcription fragments. Also, the arrest assay may be conducted at a variety of temperatures, including 45° C. and 60° C., and at a variety of ion concentrations. An example of the Taq polymerase stop assay is described in Han, et al., Nucl. Acids Res. 27:537-542 (1999), which is a modification of that used by Weitzmann, et al., J. Biol. Chem. 271, 20958-20964 (1996). Briefly, a reaction mixture of template DNA (50 nM), Tris∘HCl (50 mM), MgCl2 (10 mM), DTT (0.5 mM), EDTA (0.1 mM), BSA (60 ng), and 5′-end-labeled quadruplex nucleic acid (˜18 nM) is heated to 90° C. for 5 minutes and allowed to cool to ambient temperature over 30 minutes. Taq Polymerase (1 μl) is added to the reaction mixture, and the reaction is maintained at a constant temperature for 30 minutes. […]

[1] = system: c-MYB nucleic acid (heptad:tetrad quadruplex); test: DNA polymerase arrest assay, c-MYB nucleic acid; assay type: biochemical; settings: temperature gradient of 37° C. to 57° C., in the presence of potassium
Text: as §1

c-MYB RNA = test: Real-time reverse-transcription PCR gene expression in Colo-205 cells, c-MYB; assay type: cell-based; settings: minimally cytotoxic doses
Procedure: (§2) Cells were treated with telomestatin (interacts with the putative tetrad:heptad in HER-2/neu) and TmPyP4 (negative control) at various concentrations and times. Cytotoxicity studies using MTS were performed to determine a non-toxic or minimally toxic dose and duration of treatment. Cells were harvested after treatment for RNA extraction, and “target” versus “non-target” gene expression is measured by real-time reverse-transcription PCR according to established methods.
(§3) Target genes included two known tetrad/heptad (T:H) forming genes, HER-2/neu and c-MYB. c-MYC was analyzed as a positive control, having a known chair quadruplex forming regulatory unit in the nuclease hypersensitive element of the P1 promoter. […]
(§4) A panel of cell lines including SK-BR-3 breast cancer, BT-474 breast cancer, MCF-7 breast cancer, Colo-205 colon cancer, and HeLa cervical cancer were treated with the quadruplex interactive compound TmPyP4 to assess for the cytotoxicity of this agent against a panel of cell lines with various levels of expression of HER-2/neu, c-MYB, and c-MYC. At minimally cytotoxic doses, Colo-205 cells were analyzed for gene expression after treatment with TmPyP4 and using real-time reverse-transcription PCR.

c-MYC RNA = test: Real-time reverse-transcription PCR gene expression in Colo-205 cells, c-MYC; assay type: cell-based; settings: minimally cytotoxic doses
Procedure: as §2, §3, §4

HER-2/neu RNA = test: Real-time reverse-transcription PCR gene expression in Colo-205 cells, HER-2/neu; assay type: cell-based; settings: minimally cytotoxic doses
Procedure: as §2, §3, §4

GAPDH RNA = test: Real-time reverse-transcription PCR gene expression in Colo-205 cells, GAPDH; assay type: cell-based; settings: minimally cytotoxic doses
Procedure: as §2, §3, §4

B-actin RNA = test: Real-time reverse-transcription PCR gene expression in Colo-205 cells, B-actin; assay type: cell-based; settings: minimally cytotoxic doses
Procedure: as §2, §3, §4

quadruplex DNA = settings: stated as reason for use as negative control; cited from earlier work

SMILES	interaction with and stabilization of the HER-2/neu quadruplex (HER-2/neu quadruplex)	interaction with and stabilization of the c-MYB nucleic acid [1]	c-MYB RNA level (c-MYB RNA)	c-MYC RNA level (c-MYC RNA)	HER-2/neu RNA level (HER-2/neu RNA)	GAPDH RNA level (GAPDH RNA)	B-actin RNA level (B-actin RNA)	interaction with quadruplex DNA (quadruplex DNA)
C[n+]1ccc(-c2c3nc(c(-c4cc[n+](C)cc4)c4ccc([nH]4)c(-c4cc[n+](C)cc4)c4ccc([nH]4)c(-c4cc[n+](C)cc4)c4nc2C=C4)C=C3)cc1 [TMPyP4]	no apparent change in the stability of the HER-2/neu quadruplex	interacted with and stabilized the c-MYB nucleic acid	reduction	reduction	not a reduction	not a reduction	not a reduction	–
C[n+]1ccccc1-c1c2nc(c(-c3cccc[n+]3C)c3ccc([nH]3)c(-c3cccc[n+]3C)c3ccc([nH]3)c(-c3cccc[n+]3C)c3nc1C=C3)C=C2 [TmPyP2]	–	–	–	–	–	–	–	interacts only weakly with quadruplex DNA
